From US20190282518A1 (Bryn Pharma, LLC, priority 2018, published 2019)

Tested on: histamine induced nasal congestion
Details: 5% histamine aerosol, dogs

NCCc1c[nH]cn1 [Histamine]
induction of nasal congestion: induced congestion in all animals to varying degrees
